Data published in EP4768485A1 (Guangzhou Baiyunshan Pharmaceutical Holdings Co., Ltd. …, priority 2023, dated 2025).
In brackets after ≈: the same amount, converted by molar mass.

Tests used:
EcFabI = EcFabI (Escherichia coli, UniProt P0AEK4); assay: FabI enzymatic activity by NADH/NADPH oxidation (fluorescence), EcFabI; type: biochemical; details: 9 nmol/L EcFabI; trans-dodecenoyl-CoA and NADH; pH 6.5
Procedure: (§4) In this test example, the enzymatic activity was evaluated by monitoring the oxidation of cofactor NADH/NADPH using a microplate reader.
(§5) The compound was dissolved in DMSO and added to a 384-well plate using ECHO665. Serial 3-fold or 4-fold dilutions were prepared to generate 10 dose points with two replicates per concentration, ensuring a final DMSO concentration 1% in each reaction well. Then, a FabI protein solution was added, and the protein was prepared in a buffer containing 100 mmol/L PBS, 0.05% Tween-20, and 150 mmol/L NaCl (pH 6.5), so that the final concentrations of SaFabI and EcFabI proteins were 15 nmol/L and 9 nmol/L, respectively. The prepared 5 µL of 15 nmol/L SaFabI and 9 nmol/L EcFabI were added to a 384-well assay plate, and centrifuged at 1000 rpm for 1 minute. Then, the plate was pre-incubated in a temperature-controlled shaker at 30 °C for 20 minutes. Moreover, substrates trans-octenoyl-CoA, NADPH, trans-dodecenoyl-CoA, and NADH were diluted in a buffer containing 100 mmol/L PBS, 0.05% Tween-20, and 15 0 mmol/L NaCl (pH 6.5) respectively, and their concentrations were adjusted to 300 µmol/L, 300 µmol/L, 600 µmol/L, and 150 µmol/L, respectively. For SaFabI, 5 µL of 300 µmol/L trans-octenoyl-CoA and 5 µL of 300 µmol/L NADPH were added to initiate the reaction. Immediately after initiation, the plate was placed into the microplate reader, and fluorescence signals (Ex 340 nm/Em 460 nm) were recorded every 0.5 minutes for at least 10 minutes. Similarly, 5 µL of 600 µmol/L trans-dodecenoyl-CoA and 5 µL of 150 µmol/L NADH were added to initiate reaction of EcFabI. Immediately after initiation, the plate was immediately placed into the microplate reader, and fluorescence signals (Ex 340 nm/Em 460 nm) were recorded every 0.5 minutes for at least 10 minutes. The reaction rate (fluorescence signal per minute) of each well was calculated from the fluorescence values. The inhibitory effect of the compound on the protein was then calculated based on the reaction rate, and the IC50 value for inhibition of enzyme activity by the compound was determined by fitting the data using GraphPad Prism 6 with log (inhibitor) vs. response variable slope model. The fitting equation is: Y=Bottom + (Top-Bottom)/(1+10^((LogIC50-X)*HillSlope)), wherein Y represents the known percentage of residual enzyme activity, and X represents the known Log concentration of the compound.

MRSA NRS 384 = assay: MIC, agar plate two-fold dilution; type: cell-based, Staphylococcus aureus; details: MHA, 37°C, 16-20 hours; for MIC: Staphylococcus aureus, MRSA|NRS384, read-out: Minimum Inhibitory Concentration MIC, MRSA NRS 384; for Minimum Inhibitory Concentration MIC: MRSA NRS 384
Procedure: (§1) In this test example, the minimum inhibitory concentration (MIC) of the compound was determined.
(§2) The test drug concentration was set to be within a range of 0.008 µg/mL to 128 µg/mL in a two-fold serial dilution using an agar plate two-fold dilution method. The sample was dissolved in DMSO to prepare a 2 mL solution with a concentration of 1.92 mg/mL. The control group was prepared in sterile distilled water to obtain a concentration of 1.92 mg/mL. 1 mL of the prepared drug solution was added to a sterile culture dish, followed by addition of 14 mL of MHA culture medium at approximately 60°C. After thorough mixing, 1 mL of sterilized distilled water was added for two-fold dilution, resulting in a final drug concentration of 64 µg/mL, 32 µg/mL, 16 µg/mL, 8 µg/mL, 4 µg/mL, 2 µg/mL, 1 µg/mL, 0.5 µg/mL, 0.25 µg/mL, 0.125 µg/mL, 0.06 µg/mL, 0.03 µg/mL, 0.015 µg/mL, and 0.008 µg/mL (wherein the final concentrations of samples 2, 4, and 9 were diluted downward starting from 128 µg/mL), and set aside for later use. The prepared bacterial suspension was inoculated onto drug-containing MHA culture medium with a multi-point inoculator, with an inoculation volume of approximately 10^4 CFU per point. A sterile control group (1 mL DMSO + 14 mL MHA culture medium and 1 mL sterile distilled water + 14 mL MHA culture medium) was set up.

MSSA ATCC 29213 = assay: MIC, agar plate two-fold dilution; type: cell-based, Staphylococcus aureus; details: MHA, 37°C, 16-20 hours; for MIC: Staphylococcus aureus, ATCC29213|MSSA, read-out: Minimum Inhibitory Concentration MIC, MSSA ATCC 29213; for Minimum Inhibitory Concentration MIC: MSSA ATCC 29213
Procedure: as §1, §2

VRSA VRS 1 = assay: MIC, agar plate two-fold dilution; type: cell-based, Staphylococcus aureus; details: MHA, 37°C, 16-20 hours; for Minimum Inhibitory Concentration MIC: VRSA VRS 1
Procedure: as §1, §2

[1] = system: Acinetobacter baumannii ARLG 1852; assay: MIC, agar plate two-fold dilution; type: cell-based; details: for MIC: Acinetobacter baumannii, ARLG1852, read-out: Minimum Inhibitory Concentration MIC; for Minimum Inhibitory Concentration MIC: Acinetobacter baumannii ARLG 1852, MHA, 37°C, 16-20 hours
Procedure: as §1, §2

[2] = system: Escherichia coli. ATCC 25923; assay: MIC, agar plate two-fold dilution; type: cell-based; details: MHA, 37°C, 16-20 hours; for MIC: Escherichia coli, ATCC25923, read-out: Minimum Inhibitory Concentration MIC, Escherichia coli. ATCC 25923; for Minimum Inhibitory Concentration MIC: Escherichia coli. ATCC 25923
Procedure: as §1, §2

[3] = system: Klebsiella pneumoniae ATCC BAA 2472; assay: MIC, agar plate two-fold dilution; type: cell-based; details: for MIC: Klebsiella pneumoniae, BAA2472, read-out: Minimum Inhibitory Concentration MIC; for Minimum Inhibitory Concentration MIC: Klebsiella pneumoniae ATCC BAA 2472, MHA, 37°C, 16-20 hours
Procedure: as §1, §2

SaFabI = SaFabI (Staphylococcus aureus, UniProt Q6GI75); assay: FabI enzymatic activity by NADH/NADPH oxidation (fluorescence), SaFabI; details: SaFabI IC50, 15 nmol/L SaFabI; trans-octenoyl-CoA and NADPH; pH 6.5
Chain of SaFabI (Q6GI75 whole entry): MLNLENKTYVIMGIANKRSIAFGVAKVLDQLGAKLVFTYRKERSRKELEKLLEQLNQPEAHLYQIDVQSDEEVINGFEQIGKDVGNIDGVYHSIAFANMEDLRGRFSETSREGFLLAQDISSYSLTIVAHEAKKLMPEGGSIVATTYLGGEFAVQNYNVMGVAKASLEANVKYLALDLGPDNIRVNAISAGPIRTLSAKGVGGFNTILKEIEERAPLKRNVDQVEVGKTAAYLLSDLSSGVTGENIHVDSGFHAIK
Procedure: as §4, §5

[4] = system: methicillin-resistant S. aureus (NRS384); assay: Systemic infection model in mice, in vivo efficacy; parameters: species or system Balb/c mice; details: single-dose oral administration, 0.3, 1.0, 3.0 mg/Kg; vs linezolid 3 mg/Kg and Debio-1450
Procedure: In this test experiment, the in vivo efficacy of the compound in mice was evaluated using a systemic infection model.
Ninety healthy adult male Balb/c mice (purchased from Beijing Vital River Laboratory Animal Technology Co., Ltd. , China) were selected, and divided into 10 groups, including one negative control group (9 mice, inoculated with bacteria and given vehicle), one positive control group (9 mice, vancomycin), one linezolid test group (9 mice), three test groups of high, medium, and low doses (3 ×9 mice) for compound 1a, three test groups of high, medium, and low doses (3 ×9 mice) for Debio-1450, and one test group for Debio-1452 (9 mice). All mice were acclimatized for 3-4 days before testing. The strain inoculated in this test example was methicillin-resistant S. aureus (NRS384), which was administered via tail vein injection at a dose of 1.0 × 10^8 CFU/mouse. The compound was administered 0.5 h post inoculation with the strain. The compound 1a and Debio-1452 were formulated in a vehicle containing 5% DMSO, 30% PEG400, and 65% H2O, while Debio-1450 was formulated in an isotonic glucose solution (freshly prepared) as the vehicle and was administered orally as a single dose. The specific dosing regimen is shown in Table 5: Table 5 Dosing Regimen for Systemic Infection Efficacy Model

[5] = system: Acinetobacter baumannii ATCC17979; assay: MIC, antibacterial spectrum; type: cell-based
Procedure: as §2
(§3) Referring to the minimum inhibitory concentration test method mentioned above, the antibacterial spectrum of compound 1b was tested. […] Table 3 Antibacterial Spectrum Testing of Compound 1b MIC (µg/mL)

[6] = system: Enterobacter cloacae ATCC13047; assay: MIC, antibacterial spectrum; type: cell-based
Procedure: as §2, §3

[7] = system: Enterococcus faecalis ATCC51299; assay: MIC, antibacterial spectrum; type: cell-based
Procedure: as §2, §3

[8] = system: Haemophilus influenzae ATCC29213; assay: MIC, antibacterial spectrum; type: cell-based
Procedure: as §2, §3

[9] = system: Klebsiella pneumoniae ATCC2055; assay: MIC, antibacterial spectrum; type: cell-based
Procedure: as §2, §3

[10] = system: Moraxella catarrhalis ATCC43617; assay: MIC, antibacterial spectrum; type: cell-based
Procedure: as §2, §3

[11] = system: Neisseria gonorrhoeae ATCC49226; assay: MIC, antibacterial spectrum; type: cell-based
Procedure: as §2, §3

[12] = system: Pseudomonas aeruginosa ATCC12055; assay: MIC, antibacterial spectrum; type: cell-based
Procedure: as §2, §3

[13] = system: Salmonella Typhi CMCC12055; assay: MIC, antibacterial spectrum; type: cell-based; details: Salmonella enterica
Procedure: as §2, §3

[14] = system: Staphylococcus epidermidis ATCC35983; assay: MIC, antibacterial spectrum; type: cell-based
Procedure: as §2, §3

[15] = system: Staphylococcus haemolyticus CICC23976; assay: MIC, antibacterial spectrum; type: cell-based
Procedure: as §2, §3

[16] = system: Staphylococcus hominis ATCC27844; assay: MIC, antibacterial spectrum; type: cell-based
Procedure: as §2, §3

[17] = Pharmacokinetic study in rats; type: in vivo, Sprague-Dawley (SD) rats; details: oral gavage
Procedure: In this test experiment, a pharmacokinetic study of the compound in rats was conducted.
Twelve healthy adult female Sprague-Dawley (SD) rats (purchased from Beijing Vital River Laboratory Animal Technology Co., Ltd., China) with an average body weight of about 180-220 g were selected, and divided into four groups (n=3 per group). Two groups were administered via tail vein injection, while the other two groups were administered via oral gavage. Compound 1b was dissolved in a vehicle containing 5% DMSO, 30% PEG400, and 65% H2O, and Debio-1450 was dissolved in physiological saline, both of which were formed into a stable clear solution for later use. Animals were fasted for 12 hours before administration and resumed normal feeding 2 hours post administration. Then, blood samples were collected through the jugular vein at the following time points: 0.083 h, 0.25 h, 0.5 h, 1 h, 2 h, 4 h, 8 h, 24 h (tail vein injection) and 0.25 h, 0.5 h, 1 h, 2 h, 4 h, 8 h, 24 h (oral gavage administration), respectively, with a blood collection volume of about 200-400 µL. Whole blood collected at each time point was immediately transferred into an anticoagulant tube containing K2EDTA, then stored on ice in an insulated container. All samples were centrifuged within 15 minutes at 4600 r/min and 4°C for 5 minutes to separate plasma. The concentration of the compound in the plasma of each rat was determined using LC-MS/MS method, and the pharmacokinetic parameter was calculated from the drug concentration-time profile. Table 4 Oral Pharmacokinetic Parameters of Compound 1b/Debio-1450 In Rats

[18] = female, Sprague-Dawley, rat, in vivo, 15 mg/Kg, plasma

Chain of EcFabI (P0AEK4 whole entry): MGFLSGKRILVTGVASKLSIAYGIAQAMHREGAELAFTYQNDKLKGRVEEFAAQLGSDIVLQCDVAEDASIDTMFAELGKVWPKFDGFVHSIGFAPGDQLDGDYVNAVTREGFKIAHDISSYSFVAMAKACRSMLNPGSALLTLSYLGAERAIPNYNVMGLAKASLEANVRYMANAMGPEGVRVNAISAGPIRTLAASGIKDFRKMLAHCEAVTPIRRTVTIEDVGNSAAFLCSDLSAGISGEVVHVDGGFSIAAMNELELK

## Cc1c(CN(C)C(=O)/C=C/c2cnc3c(c2)C2CC2(N)C(=O)N3)oc2c(C3CC3)cccc12 (single isomer, unassigned) [Compound 2a]
EcFabI
  IC50: 6 nM
MRSA NRS 384
  MIC: < 0.008 µg/mL
MSSA ATCC 29213
  MIC: < 0.008 µg/mL
VRSA VRS 1; Staphylococcus aureus, VRSA, read-out: Minimum Inhibitory Concentration MIC, VRSA VRS 1
  MIC: 0.06 µg/mL (≈ 0.136 µM)
[1]
  MIC: > 32 µg/mL
[2]
  MIC: 8 µg/mL (≈ 18.1 µM)
[3]
  MIC: 32 µg/mL (≈ 72.3 µM)
SaFabI
  IC50: 10 nM

## Cc1c(CN(C)C(=O)/C=C/c2cnc3c(c2)C2CC2(N)C(=O)N3)oc2c(C3CC3)cccc12 (single isomer, unassigned) [Compound 2b]
EcFabI
  IC50: 13 nM
MRSA NRS 384
  Minimum Inhibitory Concentration MIC: <0.008 µg/mL
MSSA ATCC 29213
  Minimum Inhibitory Concentration MIC: 0.016 µg/mL
VRSA VRS 1
  Minimum Inhibitory Concentration MIC: 0.06 µg/mL
[1]
  Minimum Inhibitory Concentration MIC: >32 µg/mL
[2]
  Minimum Inhibitory Concentration MIC: >16 µg/mL
[3]
  Minimum Inhibitory Concentration MIC: 32 µg/mL
SaFabI
  IC50: 12 nM

## Cc1c(CN(C)C(=O)/C=C/c2cnc3c(c2)C2CC2(N)C(=O)N3)oc2c(C)cccc12 (stereo not shown) [Compound 1a]
EcFabI
  IC50: 4 nM
MRSA NRS 384
  MIC: < 0.008 µg/mL
MSSA ATCC 29213
  MIC: < 0.008 µg/mL
VRSA VRS 1
  Minimum Inhibitory Concentration MIC: 0.25 µg/mL
[1]
  MIC: > 32 µg/mL
[2]
  MIC: 4 µg/mL (≈ 9.6 µM)
[3]
  MIC: 16 µg/mL (≈ 38.4 µM)
[4]
  efficacy compared with the reference compounds: markedly superior efficacy to linezolid and better efficacy than Debio-1450
SaFabI
  IC50: 5 nM

## Cc1c(CN(C)C(=O)/C=C/c2cnc3c(c2)C2CC2(N)C(=O)N3)oc2c(C)cccc12 (stereo not shown) [Compound 1b]
EcFabI
  IC50: 5 nM
MRSA NRS 384
  Minimum Inhibitory Concentration MIC: <0.008 µg/mL
MSSA ATCC 29213
  Minimum Inhibitory Concentration MIC: <0.008 µg/mL
VRSA VRS 1
  Minimum Inhibitory Concentration MIC: 0.12 µg/mL
[1]
  Minimum Inhibitory Concentration MIC: >32 µg/mL
[2]
  Minimum Inhibitory Concentration MIC: 4 µg/mL
[3]
  Minimum Inhibitory Concentration MIC: 16 µg/mL
[5]
  MIC: 32 µg/mL (≈ 76.8 µM)
[6]
  MIC: 8 µg/mL (≈ 19.2 µM)
[7]
  MIC: > 64 µg/mL
[8]
  antibacterial activity (in words): good antibacterial activity
[8]; ATCC29213
  MIC: 0.25 µg/mL (≈ 0.6 µM)
[9]
  MIC: 8 µg/mL (≈ 19.2 µM)
[10]; Moraxella catarrhalis
  antibacterial activity (in words): excellent antibacterial activity
[10]; Moraxella catarrhalis ATCC43617
  MIC: < 0.06 µg/mL
[11]
  MIC: 8 µg/mL (≈ 19.2 µM)
[12]
  MIC: > 64 µg/mL
[13]
  MIC: 4 µg/mL (≈ 9.6 µM)
[14]; Staphylococcus epidermidis
  antibacterial activity (in words): excellent antibacterial activity
[14]; Staphylococcus epidermidis ATCC35983
  MIC: < 0.06 µg/mL
[15]
  MIC: < 0.06 µg/mL
[16]; Staphylococcus hominis
  antibacterial activity (in words): excellent antibacterial activity
[16]; Staphylococcus hominis ATCC27844
  MIC: < 0.06 µg/mL
[17]; [18]
  Tmax: 1.5 h
  half-life: 2.57 h
[17]; 15 mg/Kg vs tail vein injection
  F: 110%
SaFabI
  IC50: 12 nM
